Assay results published in US11801257B2, “Stimulation of an immune response by enantiomers of cationic lipids” (PDS Biotechnology Corporation, priority 2008, dated 2023).

What was measured:
TC-1 HPV-positive tumors = test: TC-1 HPV-positive tumor growth in mice treated with cationic lipid/E7 compositions; type: in vivo; details: for ability to eradicate HPV-E7 positive tumors in tumor-bearing mice (tumor regression): lipid/E7 formulations, multiple lipid doses, summary statements
Experimental: TC-1 cells are C57BL/6 mouse lung […] cells that have been transformed with the HPV16 E6 and E7 oncogenes and activated H-ras. Cells were grown in RPMI medium (commercially available from Invitrogen of Carlsbad, CA) supplemented with 10% fetal bovine serum and 100 U/ml penicillin, and […] streptomycin. The MHC class I restricted peptide from the HPV 16 E7 protein (amino acid 11 to 20, YMLDLQPETT [SEQ. ID. NO. 1]) was synthesized by the University of Pittsburgh Peptide Synthesis Facility by solid state synthesis using an Advanced ChemTech model 200 peptide synthesizer and purified by HPLC.
In FIG. 12, mice were subcutaneously injected with TC-1 cells on day 0 in order to induce the growth of HPV-positive tumors. The DOTAP/E7 compositions were comprised of racemic mixtures of DOTAP. The mice received DOTAP/E7 compositions containing 10 μg E7 peptide subcutaneously on the opposite side of the abdomen on day 6.
In FIGS. 13 and 14, mice were subcutaneously injected with TC-1 cells on day 0 in order to induce the growth of HPV-positive tumors. The mice received R and S-DOTAP/E7 compositions containing 20 μg E7 peptide subcutaneously on the opposite side of the abdomen on day 6. R or S-DOTAP lipid concentrations in the complex varied from 3 to 600 nmole (3, 15, 30, 75, 100, 125, 150, 300, and 600 nmole).

DC2.4 dendritic cells = details: cited from earlier work; for expression of CD80/CD86: liposomes, DC2.4 cells; for ability to stimulate the expression of CD 80 on DC 2.4 cells (relative potency): comparison by head group and acyl chain
purified human T-cells = test: Induction of human T-cell proliferation by R and S enantiomers of DOTAP; type: cell-based
Source text: In the present studies, the induction of human T-cell proliferation by the R and S enantiomers of DOTAP was investigated and confirmed using purified T-cells obtained from Lonza, MA.

[1] = system: Human HLA-A2 dendritic cells; test: Chemokine and cytokine production by human dendritic cells (Searchlight Protein Array Multiplex ELISA); type: cell-based; details: 40 micromolar complex
Experimental: Human HLA-A2 dendritic cells (Lonza, Walkersville, MD), were treated and grown in culture as described above. On day 3 the cells were treated with 40 micromolar DOTAP/E7 complex or the potent immunostimulator lipopolysaccharide (LPS) at 50 micromolar concentrations (positive control). Medium from assay wells was removed and centrifuged at 1300 rpm in a microfuge for 5 minutes to pellet unattached dendritic cells. The supernatants were removed and treated with 10 microliters per ml of Calbiochem (La Jolla, CA) protease inhibitor cocktail set I (Cat. No. 539131) and stored frozen prior to analysis. Samples were analyzed for chemokine and cytokine expression by Searchlight Protein Array Multiplex ELISA assay [Pierce Biotechnology (Woburn, MA)].

human T lymphocytes = details: cited from earlier work
[2] = lipid 600 nmole with 20 μg E7 peptide, s.c. day 6 (S-DOTAP P<0.05)

In the case of “YMLDLQPETT (Human papillovirus subtype 16 E7 oncogene tumor-associated antigen MHC class I restricted peptide) [E7 peptide, ID; NO]”, the “inhibition of tumor growth” value (TC-1 HPV-positive tumors; peptide alone, no lipid (not shown)) is reported as “did not show any inhibition of tumor growth”.
For `CCCCCCCCCCCCCCOC(=O)C[C@H](NC(=O)[C@@H](N)CCCCN)C(=O)OCCCCCCCCCCCCCC` [DMKE, O,O′-dimyristyl-N-lysyl aspartate], the “expression of CD80/CD86” value (DC2.4 dendritic cells) is given as “strongly stimulated”.
With `CCCCCCCC/C=C\CCCCCCCC(=O)OC[C@@H](C[N+](C)(C)C)OC(=O)CCCCCCC/C=C\CCCCCCCC` [S-DOTAP, 1,2-dioleoyl-3-trimethylammoninum propane] the “tumor growth versus untreated control on day 23” value (TC-1 HPV-positive tumors; [2]) was “induced the slowest tumor growth”, the “tumor growth / tumor regression over the lipid dose series” value (TC-1 HPV-positive tumors; lipid 3 to 600 nmole with 20 μg E7 peptide, s.c. day 6) was “did not exhibit the ability to inhibit tumor growth and no tumor regression was observed” and the “ability to eradicate HPV-E7 positive tumors in tumor-bearing mice (tumor regression)” value (TC-1 HPV-positive tumors) was “only limited tumor regression”. For the same compound, the “dose range that effectively attenuates tumor growth” value (TC-1 HPV-positive tumors; rodent species, listed as S-enantiomer of DOTAP) was “effective over this same range of doses” and the “induction of human T-cell proliferation” value (purified human T-cells) was “confirmed”.
For `CCCCCCCC/C=C\CCCCCCCC(=O)OC[C@H](COP(=O)(O)OCC(O)CO)OC(=O)CCCCCCC/C=C\CCCCCCCC` (stereo partly drawn) [DOPG, 1,2-dioleoyl-sn-glycero-3-phosphoglycerol], the “inhibition of tumor growth” value (TC-1 HPV-positive tumors; anionic lipid liposomes 150 nmole with antigen) was “failed to significantly inhibit tumor growth”.
For `CCCCCCCC/C=C\CCCCCCCC(=O)OC[C@@H](C[N+](C)(C)C)OC(=O)CCCCCCC/C=C\CCCCCCCC` [R-DOTAP, 1,2-dioleoyl-3-trimethylammoninum propane], the “potency in inducing chemokine and cytokine production relative to DOTAP racemic mixture” value [1] was “equivalent to or higher than”, the “potency in inducing chemokine and cytokine production, R versus S enantiomer” value [1] was “more potent immune activator than S-DOTAP” and the “potency in inducing chemokine and cytokine production, R versus S enantiomer” value ([1]; listed as R-enantiomer) was “higher potency”. The “tumor growth versus untreated control on day 23” value (TC-1 HPV-positive tumors; lipid 300 nmole with 20 μg E7 peptide, s.c. day 6, P<0.0001) was “most significant tumor regression efficacy”, the “tumor growth versus untreated control on day 23” value (TC-1 HPV-positive tumors; [2]) was “did not show significant anti-tumor activity” and the “tumor growth versus untreated control on day 23” value (TC-1 HPV-positive tumors; lipid 75-150 nmole with 20 μg E7 peptide, s.c. day 6, P<0.001) was “partial tumor inhibition effect”. For the same compound, the “ability to eradicate HPV-E7 positive tumors in tumor-bearing mice (tumor regression)” value (TC-1 HPV-positive tumors) was “results in tumor regression” and the “induction of human T-cell proliferation” value (purified human T-cells) was “induced more T-cell proliferation than S-DOTAP”.
For `CCCCCCCCCCCCCC(=O)OCC(COP(=O)(OCC)OCC[N+](C)(C)C)OC(=O)CCCCCCCCCCCCC` (stereo not drawn) [DMEPC-14:0, 1,2-dimyristoyl-sn-glycero-3-ethylphosphocholine], the “ability to stimulate the expression of CD 80 on DC 2.4 cells (relative potency)” value (“ability … (relative potency)” for short) (DC2.4 dendritic cells) is given as “more potent”.
For `CCCCCCCCCCCCCCOC(=O)CC[C@H](NC(=O)[C@@H](N)CCCCN)C(=O)OCCCCCCCCCCCCCC` [DMKD, O,O′-dimyristyl-N-lysyl-glutamate], the “expression of CD80/CD86” value (DC2.4 dendritic cells) is given as “strongly stimulated”.
For `CCCCCCCC/C=C\CCCCCCCC(=O)OC[C@@H](COP(=O)(OCC)OCC[N+](C)(C)C)OC(=O)CCCCCCC/C=C\CCCCCCCC` (stereo partly drawn) [DOEPC-18:1, 1,2-dioleoyl-sn-glycero-3-ethylphosphocholine], the “ability … (relative potency)” value (DC2.4 dendritic cells) is listed as “more potent”.
In the case of `CCCCCCCCCCCC(=O)OC[C@H](COP(=O)(OCC)OCC[N+](C)(C)C)OC(=O)CCCCCCCCCCC` (stereo partly drawn) [DXEPC-12:0, 1,2-dilauroyl-sn-glycero-3-ethylphosphocholine], the “ability … (relative potency)” value (DC2.4 dendritic cells) is given as “more potent”.
In the case of `CCCCCCCC/C=C\CCCCCCCC(=O)OC[C@@H](C[N+](C)(C)C)OC(=O)CCCCCCC/C=C\CCCCCCCC` [DOTAP, 1,2-dioleoyl-3-trimethylammoninum propane], the “expansion of T cell colonies in culture” value (human T lymphocytes; HLA-A2+ donor lymphocytes, three stimulations at 7-day interval, three days after third, versus medium control) is listed as “extensive expansion of T cell colonies”, the “ERK phosphorylation in T cells” value (human T lymphocytes) is listed as “confirmed by ERK phosphorylation” and the “expression of costimulatory molecule CD86 on human T lymphocytes” value (human T lymphocytes) is listed as “induced expression of the costimulatory molecule, CD86”. The “inhibition of tumor growth” value (TC-1 HPV-positive tumors; liposomes 100 nmole, without E7 peptide) was “did not show significant inhibition of tumor growth”, the “tumor growth versus untreated control on day 23” value (TC-1 HPV-positive tumors; racemic DOTAP 15 nmole with 10 μg E7 peptide, s.c. day 6, P<0.05) was “partial tumor inhibition effect” and the “tumor growth versus untreated control on day 23” value (TC-1 HPV-positive tumors; racemic DOTAP 30 nmole with 10 μg E7 peptide, s.c. day 6, P<0.01) was “enhanced efficacy”. The “tumor growth versus untreated control on day 23” value (TC-1 HPV-positive tumors; racemic DOTAP 75 nmole with 10 μg E7 peptide, s.c. day 6, P<0.001) was “most significant tumor regression effect”, the “tumor growth versus untreated control on day 23” value (TC-1 HPV-positive tumors; racemic DOTAP 150 nmole with 10 μg E7 peptide, s.c. day 6, P<0.01) was “enhanced efficacy” and the “tumor growth versus untreated control on day 23” value (TC-1 HPV-positive tumors; racemic DOTAP 300 nmole with 10 μg E7 peptide, s.c. day 6, P<0.01) was “enhanced efficacy”. For the same compound, the “tumor growth versus untreated control on day 23” value (TC-1 HPV-positive tumors; racemic DOTAP 600 nmole with 10 μg E7 peptide, s.c. day 6) was “did not show anti-tumor activity”.
